The target of assay [1] is CDK4/D1 (Homo sapiens, UniProt P11802). Nature of the assay: ADP Glo Kinase assay CDK4/D1. The conditions noted are these: CDK4D1; compound at 10 μM; read-out: residual activity (%) at 10 μM CDK4D1. The class given is biochemical. An outline of the steps:
(§1)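 In-house ADP-Glo assay: CDK4/D1 or CDK6/D3 with RB-CTF substrate in […] Tris pH 7.5, 20 mM MgCl2, 0.4 mM DTT, 0.1 mg/ml BSA; ATP-started, 40 min at 37° C.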

The target of assay [2] is CDK6/D3 (Homo sapiens, UniProt Q00534). The experiment in a line: ADP Glo Kinase assay CDK6/D3. The class given is biochemical. The conditions noted are these: CDK6D3; compound at 10 μM; read-out: residual activity (%) at 10 μM CDK6D3. An outline of the steps: as §1
For orientation: ADP-Glo first removes unused ATP, then detects ADP through luciferase.

Assay [3] concerns the target CDK9/T1 (Homo sapiens, UniProt P50750). The experiment in a line: ADP Glo Kinase assay CDK9/T1. The class given is biochemical. The conditions noted are these: CDK9T1; read-out: CDK inhibition, Ki (μM) CDK9T1. An outline of the steps: (§2)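 Other CDKs and further kinases were profiled externally by radiometric assay. In-house ADP Glo assays covered CDK4/D1 and CDK6/D3 (RB-CTF substrate, pH 7.5 Tris buffer with MgCl2, DTT, BSA) and CDK9/T1 (RBER-IRStide substrate), 40 min at 37° C.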

Assay [4] concerns the target T1, CDKs and other kinases (Homo sapiens, UniProt P06493).
T1 construct: other: CDK1B; residual activity (%) at 10 μM CDK1B; compound at 10 μM
Nature of the assay: Radiometric kinase assay (Eurofins Pharma Discovery or Reaction Biology Corporation Kinase Profiler). The class given is biochemical. The note with it: CDK1B; for Ki: read-out: CDK inhibition, Ki (μM) CDK1B; for remaining activity at 10 µM: compound at 10 μM, read-out: residual activity (%) at 10 μM CDK1B. An outline of the steps:
as §2

Assay [5] concerns the target T2, CDKs and other kinases (Homo sapiens, UniProt P24941).
T2 construct: other: CDK2A; residual activity (%) at 10 μM CDK2A; compound at 10 μM
Described as above. The class given is biochemical. The conditions noted are these: CDK2A; for Ki: read-out: CDK inhibition, Ki (μM) CDK2A; for remaining activity at 10 µM: compound at 10 μM, read-out: residual activity (%) at 10 μM CDK2A. The procedure, abridged: as §2

In assay [6] the target is T3, CDKs and other kinases (Homo sapiens, UniProt P50613).
T3 construct: other: CDK7H; residual activity (%) at 10 μM CDK7H; compound at 10 μM
The description is as above. The note with it: CDK7H; for Ki: read-out: CDK inhibition, Ki (μM) CDK7H. The class given is biochemical. An outline of the steps:
as §2

Assay [7] deals with leukemia cell lines. The experiment in a line: Resazurin cell viability assay on leukemia cell lines (72 h growth inhibition, GI50). The note with it: Homo sapiens, MV4-11 cells. The class given is cell-based. An outline of the steps:
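MTT assay for solid tumour lines and resazurin assay for leukaemia lines, run by reported methods. GI50, the concentration giving 50% growth inhibition, was obtained by non-linear regression.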

Some results are limits rather than exact numbers.

T1 sequence (P06493 whole entry): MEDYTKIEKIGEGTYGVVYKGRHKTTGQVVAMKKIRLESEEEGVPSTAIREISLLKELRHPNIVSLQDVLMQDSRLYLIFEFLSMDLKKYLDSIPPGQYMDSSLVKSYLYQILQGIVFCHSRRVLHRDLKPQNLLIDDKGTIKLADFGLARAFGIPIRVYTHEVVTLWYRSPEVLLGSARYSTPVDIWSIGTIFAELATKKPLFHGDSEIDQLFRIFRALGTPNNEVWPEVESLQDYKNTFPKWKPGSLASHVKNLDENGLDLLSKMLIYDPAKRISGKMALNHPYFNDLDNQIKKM
Chain of CDK4/D1 (P11802 whole entry): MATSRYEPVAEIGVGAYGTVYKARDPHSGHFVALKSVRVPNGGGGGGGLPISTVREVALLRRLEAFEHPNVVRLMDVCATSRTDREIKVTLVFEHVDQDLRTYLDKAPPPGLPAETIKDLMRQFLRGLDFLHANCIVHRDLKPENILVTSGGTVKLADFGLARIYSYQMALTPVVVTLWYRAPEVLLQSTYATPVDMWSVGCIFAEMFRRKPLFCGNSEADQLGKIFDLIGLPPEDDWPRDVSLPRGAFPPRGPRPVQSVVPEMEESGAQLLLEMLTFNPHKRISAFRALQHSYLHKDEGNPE
Chain of CDK4/D1 (P24385 whole entry partner): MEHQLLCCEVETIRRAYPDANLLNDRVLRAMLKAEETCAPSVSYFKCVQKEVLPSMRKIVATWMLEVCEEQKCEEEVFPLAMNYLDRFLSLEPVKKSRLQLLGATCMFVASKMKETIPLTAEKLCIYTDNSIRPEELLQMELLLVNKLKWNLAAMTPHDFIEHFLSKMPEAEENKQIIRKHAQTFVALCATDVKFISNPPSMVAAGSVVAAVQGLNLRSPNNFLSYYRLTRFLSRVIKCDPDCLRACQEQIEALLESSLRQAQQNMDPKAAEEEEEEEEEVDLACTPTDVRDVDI
T3 sequence (P50613 whole entry): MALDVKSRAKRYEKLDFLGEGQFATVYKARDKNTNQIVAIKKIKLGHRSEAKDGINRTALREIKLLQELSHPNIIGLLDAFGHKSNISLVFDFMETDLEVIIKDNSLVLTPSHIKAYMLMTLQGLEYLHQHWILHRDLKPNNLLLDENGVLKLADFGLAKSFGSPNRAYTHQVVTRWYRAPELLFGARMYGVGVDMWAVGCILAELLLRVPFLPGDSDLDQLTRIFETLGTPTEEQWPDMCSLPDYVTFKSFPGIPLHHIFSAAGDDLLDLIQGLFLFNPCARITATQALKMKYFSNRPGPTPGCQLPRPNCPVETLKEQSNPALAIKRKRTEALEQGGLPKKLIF
Chain of CDK6/D3 (Q00534 whole entry): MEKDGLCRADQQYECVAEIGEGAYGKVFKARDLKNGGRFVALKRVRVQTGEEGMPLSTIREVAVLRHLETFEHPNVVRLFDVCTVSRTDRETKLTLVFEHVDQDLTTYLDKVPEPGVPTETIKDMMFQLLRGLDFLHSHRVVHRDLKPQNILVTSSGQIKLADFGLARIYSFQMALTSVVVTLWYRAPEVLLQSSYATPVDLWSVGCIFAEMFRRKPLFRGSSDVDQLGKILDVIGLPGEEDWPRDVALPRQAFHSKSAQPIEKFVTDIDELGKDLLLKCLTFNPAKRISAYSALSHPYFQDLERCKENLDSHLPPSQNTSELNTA
Chain of CDK6/D3 (P30281 whole entry partner): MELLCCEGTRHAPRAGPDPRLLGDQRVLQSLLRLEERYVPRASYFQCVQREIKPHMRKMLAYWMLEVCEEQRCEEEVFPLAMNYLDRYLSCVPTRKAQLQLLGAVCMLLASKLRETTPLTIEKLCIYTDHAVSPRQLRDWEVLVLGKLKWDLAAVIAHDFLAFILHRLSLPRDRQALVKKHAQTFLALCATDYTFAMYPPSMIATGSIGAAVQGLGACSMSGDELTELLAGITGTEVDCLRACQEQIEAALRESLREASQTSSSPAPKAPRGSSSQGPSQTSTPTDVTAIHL
Chain of CDK9/T1 (P50750 whole entry): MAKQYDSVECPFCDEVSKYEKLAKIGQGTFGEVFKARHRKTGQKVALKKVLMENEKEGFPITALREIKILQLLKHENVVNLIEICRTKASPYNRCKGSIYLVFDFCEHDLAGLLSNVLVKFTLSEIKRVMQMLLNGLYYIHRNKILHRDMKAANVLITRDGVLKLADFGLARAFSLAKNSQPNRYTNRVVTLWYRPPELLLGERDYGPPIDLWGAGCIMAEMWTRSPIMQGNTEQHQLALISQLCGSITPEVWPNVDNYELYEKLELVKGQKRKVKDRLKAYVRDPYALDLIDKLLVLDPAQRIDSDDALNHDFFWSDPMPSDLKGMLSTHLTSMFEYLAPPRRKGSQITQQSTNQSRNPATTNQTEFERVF
Chain of CDK9/T1 (O60563 whole entry partner): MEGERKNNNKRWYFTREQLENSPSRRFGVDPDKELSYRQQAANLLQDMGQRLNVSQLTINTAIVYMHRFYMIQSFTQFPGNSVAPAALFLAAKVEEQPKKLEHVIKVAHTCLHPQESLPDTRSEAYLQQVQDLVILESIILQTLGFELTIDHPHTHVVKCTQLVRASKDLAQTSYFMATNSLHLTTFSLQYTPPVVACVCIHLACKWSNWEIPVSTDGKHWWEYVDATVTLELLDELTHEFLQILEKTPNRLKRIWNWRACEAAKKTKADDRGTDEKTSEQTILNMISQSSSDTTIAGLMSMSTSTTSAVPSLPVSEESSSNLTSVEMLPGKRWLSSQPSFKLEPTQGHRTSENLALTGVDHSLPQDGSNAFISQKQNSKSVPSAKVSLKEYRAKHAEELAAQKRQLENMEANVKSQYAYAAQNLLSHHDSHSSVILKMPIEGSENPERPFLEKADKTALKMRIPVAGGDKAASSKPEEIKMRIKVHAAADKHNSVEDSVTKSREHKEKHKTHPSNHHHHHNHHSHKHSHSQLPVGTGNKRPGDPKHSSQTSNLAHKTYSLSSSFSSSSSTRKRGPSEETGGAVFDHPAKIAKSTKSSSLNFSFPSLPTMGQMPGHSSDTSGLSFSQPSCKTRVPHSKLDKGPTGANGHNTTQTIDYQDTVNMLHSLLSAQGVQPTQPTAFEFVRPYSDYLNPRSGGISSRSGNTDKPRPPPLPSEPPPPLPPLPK

On to `N[C@H]1CC[C@H](Nc2ncc(F)c(-c3cnc4ccc(-c5ccccc5)cn34)n2)CC1` [Compound 5, (1r,4r)-N^1-(5-Fluoro-4-(6-phenylimidazo[1,2-a]pyridin-3-yl)pyrimidin-2-yl)cyclohexane-1,4-diamine], for which the remaining activity at 10 µM turned out to be 0% in assay [1] and 16% in assay [2]. Moreover, the inhibition constant (Ki) (usually a dissociation constant, usually derived from enzyme kinetics or from competition with a known ligand) in assay [3] was 0.002 µM; in assay [4], 0.014 µM; in assay [5], 0.006 µM; in assay [6], 0.075 µM. Further, in assay [7], the GI50 (in general, the concentration at which growth is held to half of that of the control) turned out to be 0.003 ± 0.001 µM.

Turning to `N[C@H]1CC[C@H](Nc2ncc(F)c(-c3cnc4ccc(Nc5ccccc5)cn34)n2)CC1` [Compound 6, (1r,4r)-N^1-(5-Fluoro-4-(6-(phenylamino)imidazo[1,2-a]pyridin-3-yl)pyrimidin-2-yl)cyclohexane-1,4-diamine], the remaining activity at 10 µM came out at 11% in assay [1] and 16% in assay [2]. Further, the Ki in assay [3] turned out to be 0.003 µM; in assay [4], 0.013 µM; in assay [5], 0.009 µM; in assay [6] it was 0.016 µM. The molecule further came in with a GI50 in assay [7] of 0.002 ± 0.0005 µM.

As to `Cc1cnc(N[C@H]2CC[C@H](N)CC2)nc1-c1cnc2ccccn12` [Compound 8, (1r,4r)-N^1-(4-(Imidazo[1,2-a]pyridin-3-yl)-5-methylpyrimidin-2-yl)cyclohexane-1,4-diamine], the remaining activity at 10 µM was 11% in assay [1] and 34% in assay [2]. Also, the Ki in assay [3] came out at 0.035 µM; in assay [4], 3.81 µM; in assay [5], 0.35 µM; in assay [6], 0.38 µM. Moreover, in assay [7], the GI50 came to 0.066 ± 0.007 µM.

`Cc1cnc(N[C@H]2CC[C@H](N)CC2)nc1-c1cnc2ccc(C(F)(F)F)cn12` [Compound 9, (1r,4r)-N^1-(5-Methyl-4-(6-(trifluoromethyl)imidazo[1,2-a]pyridin-3-yl)pyrimidin-2-yl)cyclohexane-1,4-diamine]: the remaining activity at 10 µM in assay [1] was 45%; in assay [2], 58%. Besides, the Ki in assay [3] came out at 0.009 µM; in assay [4], 0.266 µM; in assay [5] it was 0.08 µM; in assay [6], 0.23 µM. Moreover, it took 0.008 ± 0.002 µM to inhibit growth in assay [7] by half (GI50).

With `COc1cnc(N[C@H]2CC[C@H](N)CC2)nc1-c1cnc2ccccn12` [Compound 11, (1r,4r)-N^1-(4-(Imidazo[1,2-a]pyridin-3-yl)-5-methoxypyrimidin-2-yl)cyclohexane-1,4-diamine], the remaining activity at 10 µM amounted to 40% in assay [1]; 27% in assay [2]; 75% in assay [4]; 63% in assay [5]; 26% in assay [6] (compound at 10 μM, read-out: residual activity (%) at 10 μM CDK7H). In addition, in assay [3], the Ki is 0.291 µM. Besides, the GI50 in assay [7] stood at 0.009 ± 0.001 µM.

As for `N[C@H]1CC[C@H](Nc2ncc(Cl)c(-c3cnc4ccc(Br)cn34)n2)CC1` [Compound 12, (1r,4r)-N^1-(4-(6-Bromoimidazo[1,2-a]pyridin-3-yl)-5-chloropyrimidin-2-yl)cyclohexane-1,4-diamine], the remaining activity at 10 µM in assay [1] was 4%; in assay [2], 41%. Also, the Ki in assay [3] was 0.008 µM; in assay [4] it was 0.121 µM; in assay [5] it was 0.013 µM; in assay [6] it was 0.032 µM. In assay [7], the GI50 is 0.006 ± 0.001 µM.

Regarding `N[C@H]1CC[C@H](Nc2ncc(Cl)c(-c3cnc4ccc(C(F)(F)F)cn34)n2)CC1` [Compound 13, (1r,4r)-N^1-(5-Chloro-4-(6-(trifluoromethyl)imidazo[1,2-a]pyridin-3-yl)pyrimidin-2-yl)cyclohexane-1,4-diamine], the remaining activity at 10 µM in assay [1] was 0%; in assay [2] it was 59%. Moreover, the Ki in assay [3] amounted to 0.024 µM; in assay [4], 0.329 µM; in assay [5] it was 0.063 µM; in assay [6] it was 0.052 µM. This molecule gave a GI50 in assay [7] of 0.022 ± 0.002 µM.

Turning to `N[C@H]1CC[C@H](Nc2ncc(Cl)c(-c3cnc4c(Br)cc(C(F)(F)F)cn34)n2)CC1` [Compound 14, (1r,4r)-N^1-(4-(8-Bromo-6-(trifluoromethyl)imidazo[1,2-a]pyridin-3-yl)-5-chloropyrimidin-2-yl)cyclohexane-1,4-diamine], the remaining activity at 10 µM was determined as 3% in assay [1] and 17% in assay [2]. Moreover, the Ki stood at 0.007 µM in assay [3], 0.755 µM in assay [4], 0.115 µM in assay [5] and 0.04 µM in assay [6]. Moreover, in assay [7], the concentration for 50% growth inhibition (GI50) worked out at 0.368 ± 0.129 µM.

Consider `COC(=O)CN[C@H]1CC[C@H](Nc2ncc(F)c(-c3cnc4ccccn34)n2)CC1` [Compound 15, Methyl ((1r,4r)-4-((5-fluoro-4-(imidazo[1,2-a]pyridin-3-yl)pyrimidin-2-yl)amino)cyclohexyl)glycinate], for which the remaining activity at 10 µM in assay [1] turned out to be 0%; in assay [2], 13%. The Ki is 0.014 µM in assay [3], 0.07 µM in assay [4], 0.027 µM in assay [5] and 0.15 µM in assay [6]. For the same molecule, it took 0.05 ± 0.009 µM to inhibit growth in assay [7] by half (GI50).

Consider `CS(=O)(=O)N[C@H]1CC[C@H](Nc2ncc(Cl)c(-c3cnc4ccc(Br)cn34)n2)CC1` [Compound 17, N-((1r,4r)-4-((4-(6-Bromoimidazo[1,2-a]pyridin-3-yl)-5-chloropyrimidin-2-yl)amino)cyclohexyl) methanesulfonamide], for which the remaining activity at 10 µM is 1% in assay [1] and 26% in assay [2]. Further, the Ki in assay [3] worked out at 0.062 µM; in assay [4] it was 0.004 µM; in assay [5] it was 0.0004 µM; in assay [6] it was 0.001 µM. Also, the GI50 in assay [7] is below 0.001 µM.

Consider `CS(=O)(=O)N[C@H]1CC[C@H](Nc2ncc(Cl)c(-c3cnc4c(Br)cc(C(F)(F)F)cn34)n2)CC1` [Compound 18, N-((1r,4r)-4-((4-(8-Bromo-6-(trifluoromethyl)imidazo [1,2-a]pyridin-3-yl)-5-chloropyrimidin-2-yl)amino)cyclohexyl)methanesulfonamide], for which the remaining activity at 10 µM in assay [1] was 9%; in assay [2], 41%. The Ki worked out at 0.148 µM in assay [3], 0.028 µM in assay [4], 0.007 µM in assay [5] and 0.001 µM in assay [6]. The GI50 in assay [7] amounted to 6.11 ± 1.14 µM.

Consider `Fc1cnc(NC2CCN(CC3CC3)CC2)nc1-c1cnc2ccccn12` [Compound 22, N-(1-(Cyclopropylmethyl)piperidin-4-yl)-5-fluoro-4-(imidazo[1,2-a]pyridin-3-yl)pyrimidin-2-amine], for which the values for the remaining activity at 10 µM in assay [1] and in assay [2] were 2% and 42%, respectively. Moreover, the Ki in assay [3] is 0.095 µM; in assay [4] it was 1.06 µM; in assay [5], 1.12 µM; in assay [6], 0.437 µM. For the same molecule, the GI50 in assay [7] turned out to be 0.041 ± 0.012 µM.

As for `COC(=O)CN1CCC(Nc2ncc(F)c(-c3cnc4ccccn34)n2)CC1` [Compound 23, Methyl 2-(4-((5-fluoro-4-(imidazo[1,2-a]pyridin-3-yl)pyrimidin-2-yl)amino)piperidin-1-yl)acetate], the remaining activity at 10 µM in assay [1] is 0%; in assay [2], 39%. Besides, the Ki in assay [3] was 0.063 µM; in assay [4], 0.258 µM; in assay [5], 0.155 µM; in assay [6], 0.885 µM. For the same molecule, the GI50 in assay [7] is 0.28 ± 0.049 µM.

Take `CS(=O)(=O)N1CCC(Nc2ncc(F)c(-c3cnc4ccccn34)n2)CC1` [Compound 24, 5-Fluoro-4-(imidazo[1,2-a]pyridin-3-yl)-N-(1-(methylsulfonyl)piperidin-4-yl)pyrimidin-2-amine]: the remaining activity at 10 µM in assay [1] was -16%; in assay [2], 18%; in assay [4], -1%; in assay [5], -1%. Moreover, the Ki turned out to be 0.141 µM in assay [3] and 0.281 µM in assay [6]. Also, in assay [7], halving of growth (GI50) required 0.506 ± 0.104 µM.

For the origin of these results see US11111245B2, “Derivatives of N-cycloalkyl/heterocycloalkyl-4-(imidazo[1,2-a]pyridine)pyrimidin-2-amine as therapeutic agents” (Aucentra Therapeutics Pty Ltd, priority 2017, dated 2021).
